# What was measured:
# Pyricularia oryzae = assay type: cell-based; conditions: relative growth vs compound-free control (100%), 405 nm, 7 days after inoculation
# Botrytis cinerea [1] = assay: Long lasting control of Botrytis cinerea on leaves of green pepper (Botrci P7), green house; assay type: in vivo; conditions: 16ppm spray, inoculated 7 days after treatment, % diseased leaf area after 5 days, untreated control 90
# Protocol: (§1) The stock solution were prepared: a mixture of acetone and/or dimethylsulfoxide and the wetting agent/emulsifier Wettol, which is based on ethoxylated alkylphenoles, in a relation (volume) solvent-emulsifier of 99 to 1 was added to 25 mg of the compound to give a total of 5 ml. Water was then added to total volume of 100 ml. This stock solution was diluted with the described solvent-emulsifier-water mixture to the given concentration.
# 3. Long lasting control of Botrytis cinerea on leaves of green pepper (Botrci P7)
# Young seedlings of green pepper were grown in pots to the 4 to 5 leaf stage. These plants were sprayed to run-off with an aqueous suspension, containing the concentration of active ingredient or their mixture mentioned in the table below. The plants were then cultivated in the greenhouse for 7 days and then inoculated with an aqueous biomalt solution containing the spore suspension of Botrytis cinerea. Then the plants were immediately transferred to a humid chamber. After 5 days at 22 to 24· C and a relative humidity close to 100 % the extent of fungal attack on the leaves was visually assessed as % diseased leaf area.
# Puccinia recondita = assay: Preventative control of brown rust on wheat (Puccrt P7), green house; assay type: in vivo; conditions: 16ppm spray, inoculated seven days after treatment, % diseased leaf area, untreated control 90
# Protocol: as §1
# 5. Preventative control of brown rust on wheat caused by Puccinia recondita (Puccrt P7)
# The first two developed leaves of pot-grown wheat seedling were sprayed to run-off with an aqueous suspension, containing the concentration of active ingredient or their mixture as described below. Seven days later the plants were inoculated with spores of Puccinia recondita. To ensure the success the artificial inoculation, the plants were transferred to a humid chamber without light and a relative humidity of 95 to 99 % and 20 to 24· C for 24 h. Then the trial plants were cultivated for 6 days in a greenhouse chamber at 20-24 °C and a relative humidity between 65 and 70 %. The extent of fungal attack on the leaves was visually assessed as % diseased leaf area.
# Phakopsora pachyrhizi = assay: Protective control of soy bean rust on soy beans (Phakpa P1), green house; assay type: in vivo; conditions: 150ppm spray, inoculated 1 day after treatment, % diseased leaf area, untreated control 70
# Botrytis cinerea [2] = assay: Activity against the grey mold in the microtiterplate test (Botrci); assay type: cell-based; conditions: relative growth vs compound-free control (100%), 405 nm, 7 days after inoculation
# Botrytis cinerea [3] = assay: Preventative fungicidal control of Botrytis cinerea on leaves of green pepper (Botrci P1), green house; assay type: in vivo; conditions: 150ppm spray, inoculated next day, % diseased leaf area after 5 days, untreated control 100
# Protocol: as §1
# 2. Preventative fungicidal control of Botrytis cinerea on leaves of green pepper (Botrci P1)
# Young seedlings of green pepper were grown in pots to the 4 to 5 leaf stage. These plants were sprayed to run-off with an aqueous suspension, containing the concentration of active ingredient or their mixture mentioned in the table below. The next day the plants were inoculated with an aqueous biomalt solution containing the spore suspension of Botrytis cinerea. Then the plants were immediately transferred to a humid chamber. After 5 days at 22 to 24· C and a relative humidity close to 100 % the extent of fungal attack on the leaves was visually assessed as % diseased leaf area.
# Septoria tritici = assay: Preventative control of leaf blotch on wheat (Septtr P1), green house; assay type: in vivo; conditions: 150ppm spray, inoculated following day, % diseased leaf area after 4 weeks, untreated control 100
# Protocol: as §1
# 4. Preventative control of leaf blotch on wheat caused by Septoria tritici (Septtr P1)
# Leaves of pot-grown wheat seedling were sprayed to run-off with an aqueous suspension of the active compound or their mixture, prepared as described. The plants were allowed to air-dry. At the following day the plants were inoculated with an aqueous spore suspension of Septoria tritici. Then the trial plants were immediately transferred to a humid chamber at 18-22°C and a relative humidity close to 100 %. After 4 days the plants were transferred to a chamber with 18-22°C and a relative humidity close to 70 %. After 4 weeks the extent of fungal attack on the leaves was visually assessed as % diseased leaf area.
Structure (SMILES),Growth (%) at 8ppm Pyrior (Pyricularia oryzae),Disease (%) at 150ppm Phakpa P1 (Phakopsora pachyrhizi),Growth (%) at 31ppm Botrci (Botrytis cinerea [2]),Growth (%) at 31ppm Pyrior (Pyricularia oryzae),other results
"OC(Cc1ccccc1Cl)(Cn1ncnc1S)C1(Cl)CC1 (stereo not shown) [Comparative 1, reference compound]",33%,,,,
"OC(Cc1ccccc1Cl)(Cn1cncn1)C1(Cl)CC1 (stereo not shown) [Comparative 2, reference compound]",,,,,Disease (%) at 16ppm Botrci P7 (Botrytis cinerea [1]): 30%; Disease (%) at 16ppm Puccrt P7 (Puccinia recondita): 50%
"CC(c1ccccc1Cl)C(O)(C(C)n1cncn1)C1(Cl)CC1 (stereo not shown) [Compound I-1, 3-(1-Chlorocyclopropyl)-2-(2-chlorophenyl)-4-(1,2,4-triazol-1-yl)pentan-3-ol]",,10%,19%,0%,
CC(n1cncn1)C(O)(Cc1ccccc1Cl)C1(Cl)CC1 (stereo not shown) [Compound I-3],,0%,1%,0%,Disease (%) at 150ppm Botrci P1 (Botrytis cinerea [3]): 0%; Disease (%) at 16ppm Botrci P7 (Botrytis cinerea [1]): 15%; Disease (%) at 150ppm Septtr P1 (Septoria tritici): 3%; Disease (%) at 16ppm Puccrt P7 (Puccinia recondita): 3%
CC(n1cncn1)C(O)(Cc1ccc(Oc2ccc(Cl)cc2)cc1Cl)C1(Cl)CC1 (stereo not shown) [Compound I-4],,15%,,6%,
CC(n1cncn1)C(O)(Cc1ccc(-c2ccc(Cl)cc2)cc1Cl)C1(Cl)CC1 (stereo not shown) [Compound I-5],,,,10%,
CC(n1ncnc1S)C(O)(Cc1ccccc1Cl)C1(Cl)CC1 (stereo not shown) [Compound I-6],6%,0%,,0%,
CC(c1ccccc1Cl)C(O)(C(C)n1ncnc1S)C1(Cl)CC1 (stereo not shown) [Compound I-7],0%,,0%,0%,

# From patent EP2746260A1, “Substituted [1,2,4]triazole and imidazole compounds” (BASF SE, priority 2012, dated 2014)
